# Experimental data: US20240327364A1, “THERAPEUTIC TARGETING OF GPR68 TO INDUCE FERROPTOSIS” (University Of Maryland, Baltimore, priority 2023, published 2024)
# Key:
# [1] = target: T1, EGFR(L747-E749del, A750P) (Homo sapiens, UniProt P00533, A750P/DEL747-749); assay: KinomeScan; assay type: binding; conditions: read-out: % Control
# T1 construct: purchased DiscoveRx (Fremont, CA), KinomeScan service
# CLK3 = CLK3 (Homo sapiens, UniProt P49761); assay: KinomeScan; assay type: binding; conditions: read-out: % Control
# Y2 = target: T2, Y2 (Homo sapiens, UniProt P49146); assay: GPCR Profiler; assay type: cell-based
# T2 construct: host or cells: Chem-1 cells expressing Galpha15
# LCK = target: T3, LCK (Homo sapiens, UniProt P06239); assay: KinomeScan; assay type: binding; conditions: read-out: % Control
# T3 construct: purchased DiscoveRx
# PAC1 = target: T4, PAC1 (Homo sapiens, UniProt P41586); assay: GPCR Profiler; assay type: cell-based
# T4 construct: host or cells: Chem-1 cells with Gα15
# CXCR1 = target: T5, CXCR1 (Homo sapiens, UniProt P25024); assay: GPCR Profiler; assay type: cell-based
# T5 construct: host or cells: Chem-1 cells with Gα15
# MKNK2 = target: T6, MKNK2 (Homo sapiens, UniProt Q9HBH9); assay: KinomeScan; assay type: binding; conditions: read-out: % Control
# T6 construct: purchased DiscoveRx
# ADRA1B = target: T7, ADRA1B (Homo sapiens, UniProt P35368); assay: GPCR Profiler; assay type: cell-based
# T7 construct: host or cells: Chem-1 cells with promiscuous Gα15
# NEK4 = target: T8, NEK4 (Homo sapiens, UniProt P51957); assay: KinomeScan; assay type: binding; conditions: read-out: % Control
# T8 construct: purchased DiscoveRx
# FES = target: T9, FES (Homo sapiens, UniProt P07332); assay: KinomeScan; assay type: binding; conditions: read-out: % Control
# T9 construct: purchased DiscoveRx (Fremont, CA)
# BB2 = target: T10, BB2 (Homo sapiens, UniProt P30550); assay: GPCR Profiler; assay type: cell-based
# T10 construct: host or cells: Chem-1 cells with promiscuous Gα15
# TEC = target: T11, TEC (Homo sapiens, UniProt P42680); assay: KinomeScan; assay type: binding; conditions: read-out: % Control
# T11 construct: purchased DiscoveRx (Fremont, CA)
# MEK3 = target: T12, MEK3 (Homo sapiens, UniProt P46734); assay: KinomeScan; assay type: binding; conditions: read-out: % Control
# T12 construct: purchased DiscoveRx (Fremont, CA)
# NEK11 = target: T13, NEK11 (Homo sapiens, UniProt Q8NG66); assay: KinomeScan; assay type: binding; conditions: read-out: % Control
# T13 construct: purchased DiscoveRx
# PRKCQ = target: T14, PRKCQ (Homo sapiens, UniProt Q04759); assay: KinomeScan; assay type: binding; conditions: read-out: % Control
# T14 construct: purchased DiscoveRx (Fremont, CA)
# [2] = target: T15, ABL1(H396P)-phosphorylated (Homo sapiens, UniProt P00519, H396P); assay: KinomeScan; assay type: binding; conditions: read-out: % Control
# T15 construct: purchased DiscoveRx
# PLK4 = target: T16, PLK4 (Homo sapiens, UniProt O00444); assay: KinomeScan; assay type: binding; conditions: read-out: % Control
# T16 construct: purchased DiscoveRx (Fremont, CA)
# CSNK1G3 = CSNK1G3 (Homo sapiens, UniProt Q9Y6M4); assay: KinomeScan; assay type: binding; conditions: read-out: % Control
# [3] = target: T17, RSK4(Kin Dom.1-N-terminal) (Homo sapiens, UniProt Q9UK32); assay: KinomeScan; assay type: binding; conditions: read-out: % Control
# T17 construct: RSK4(Kin Dom.1-N-terminal); purchased DiscoveRx (Fremont, CA)
# KIT = target: T18, KIT (Homo sapiens, UniProt P10721); assay: KinomeScan; assay type: binding; conditions: read-out: % Control
# T18 construct: purchased DiscoveRx
# CAMKK2 = target: T19, CAMKK2 (Homo sapiens, UniProt Q96RR4); assay: KinomeScan; assay type: binding; conditions: read-out: % Control
# T19 construct: purchased DiscoveRx (KinomeScan service)
# GPR68 = GPR68 (Homo sapiens, UniProt Q15743); assay: Acid-induced calcium response, GPR68-transfected HEK293 cells; assay type: cell-based
# Hep G2 = assay: Cell Titer-Glo viability, Hepatocellular cancer; assay type: cell-based
# Method: OGM2 kills wide variety of cancer cell types. Cell sensitivity can be classified in to Very Sensitive (LC50<2 μM), Sensitive (LC50=2 to 10 μM), Mildly Sensitive (LC50>10 μM), and Refractory (no killing at 10 μM). The listed established cell were incubated with OGM2 at 2 μM or 10 μM for 72 hours under standard cell culture conditions, and relative cell number was assessed using Cell Titer-Glo Luminescent Cell Viability Assay (Promega™) following the manufacturer's instructions. Luminescence was determined using a Cytation 5 reader and Gen5 software package (BioTek™).
# Cancer cells, which are very sensitive to killing by OGM2 (LCs <2 μM), with reported mRNA expression of GPR68 and the related proton sensing receptor GPR4. LC50's (concentrations causing 50% lethality) were determined using CellTiter-Glo (Promega™, G7570). Cells were plated in 12-well plates (CELLTREAT Scientific Products, 229112) in 1 ml of DMEM with high glucose, GlutaMAX, HEPES, or RPMI 1640 with Penicillin-Streptomycin (ThermoFisher™, 10564029, 11875119 and 15140122) and 10% FBS. Cells were incubated overnight at 37° C. in 5% CO2. Then 1 mL of fresh media was added with DMSO, OGM, or positive control (Erastin; APExBIO Technology, LLC, B1524) and cells incubated for 3 days. On the third day, all media was removed, cells were rinsed with 1×PBS, PBS was removed, and 200 μL of 1× Passive Lysis Buffer (Promega™, E1941) was added to each well. […]. Subsequently, 20 μL of lysate was added to 100 μL CellTiter-Glo™ reagent on a LUMITRAC 200 plate (Greiner™ bio-one, 82050-726). Plates were briefly spun down and read on a GloMax-Multi Detection System (Promega™).
# The cells listed in the tables above were incubated with OGM2 at 2 μM or 10 μM for 72 hours under standard cell culture conditions, and relative cell number was assessed using Cell Titer-Glo Luminescent Cell Viability Assay (Promega™) following the manufacturer's instructions. Luminescence was determined using a Cytation 5 reader and Gen5 software package (BioTek™). RNA expression of GPR68 and GPR4 in the corresponding cancer cell lines are listed, according to the publicly available The Human Protein Atlas version 22.0 and Ensembl version 103.38 (see proteinatlas.org). The consensus normalized expression value (“nTPM”=normalize transcript per million) was calculated as the maximum nTPM value for each gene in the two data sources.
# T4 sequence (P41586 21-468): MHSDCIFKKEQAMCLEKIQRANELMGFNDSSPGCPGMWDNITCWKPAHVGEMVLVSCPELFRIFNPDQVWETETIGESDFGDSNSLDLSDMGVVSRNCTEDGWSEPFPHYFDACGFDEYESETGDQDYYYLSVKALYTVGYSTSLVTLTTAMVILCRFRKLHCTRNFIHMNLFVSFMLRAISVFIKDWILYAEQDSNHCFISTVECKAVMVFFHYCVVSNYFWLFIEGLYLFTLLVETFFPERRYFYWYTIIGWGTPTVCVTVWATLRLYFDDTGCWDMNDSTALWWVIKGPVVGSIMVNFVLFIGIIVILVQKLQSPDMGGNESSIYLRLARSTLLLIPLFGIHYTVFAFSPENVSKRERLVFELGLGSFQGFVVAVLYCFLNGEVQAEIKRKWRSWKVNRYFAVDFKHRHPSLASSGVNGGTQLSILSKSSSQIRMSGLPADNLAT
# T7 sequence (P35368 whole entry, species assumed): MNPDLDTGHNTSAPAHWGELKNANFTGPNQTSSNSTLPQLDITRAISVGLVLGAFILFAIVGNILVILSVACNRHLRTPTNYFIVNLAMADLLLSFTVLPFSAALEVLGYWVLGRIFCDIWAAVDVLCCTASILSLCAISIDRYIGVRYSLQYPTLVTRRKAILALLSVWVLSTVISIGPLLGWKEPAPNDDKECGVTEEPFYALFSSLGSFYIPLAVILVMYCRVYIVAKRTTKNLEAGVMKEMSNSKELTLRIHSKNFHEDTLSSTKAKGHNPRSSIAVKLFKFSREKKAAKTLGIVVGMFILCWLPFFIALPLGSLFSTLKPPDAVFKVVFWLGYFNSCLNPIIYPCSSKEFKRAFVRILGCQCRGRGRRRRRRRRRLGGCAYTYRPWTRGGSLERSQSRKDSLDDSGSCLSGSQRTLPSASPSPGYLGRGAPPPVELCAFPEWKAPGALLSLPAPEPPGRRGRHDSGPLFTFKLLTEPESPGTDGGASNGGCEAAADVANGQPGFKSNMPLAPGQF
# T10 sequence (P30550 whole entry): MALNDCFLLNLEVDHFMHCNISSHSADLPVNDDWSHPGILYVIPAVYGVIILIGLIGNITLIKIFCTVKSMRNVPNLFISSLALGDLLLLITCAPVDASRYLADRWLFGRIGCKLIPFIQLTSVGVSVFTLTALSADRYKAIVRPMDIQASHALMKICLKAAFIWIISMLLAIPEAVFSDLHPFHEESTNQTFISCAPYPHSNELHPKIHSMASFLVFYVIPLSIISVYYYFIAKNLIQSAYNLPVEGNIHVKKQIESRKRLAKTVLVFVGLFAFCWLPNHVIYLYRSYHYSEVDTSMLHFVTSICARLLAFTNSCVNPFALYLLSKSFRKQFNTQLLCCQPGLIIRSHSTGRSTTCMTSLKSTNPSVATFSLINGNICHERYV
# T2 sequence (P49146 whole entry): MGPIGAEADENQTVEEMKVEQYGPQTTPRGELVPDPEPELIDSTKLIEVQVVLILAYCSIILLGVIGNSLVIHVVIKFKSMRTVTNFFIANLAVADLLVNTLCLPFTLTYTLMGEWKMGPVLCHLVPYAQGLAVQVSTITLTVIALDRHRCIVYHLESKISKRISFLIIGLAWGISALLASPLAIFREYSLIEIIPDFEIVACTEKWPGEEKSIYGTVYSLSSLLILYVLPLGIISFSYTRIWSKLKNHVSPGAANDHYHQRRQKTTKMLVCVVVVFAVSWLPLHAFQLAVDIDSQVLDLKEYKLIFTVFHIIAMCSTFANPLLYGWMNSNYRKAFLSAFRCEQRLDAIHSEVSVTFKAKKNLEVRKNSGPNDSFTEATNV
# T5 sequence (P25024 whole entry, species assumed): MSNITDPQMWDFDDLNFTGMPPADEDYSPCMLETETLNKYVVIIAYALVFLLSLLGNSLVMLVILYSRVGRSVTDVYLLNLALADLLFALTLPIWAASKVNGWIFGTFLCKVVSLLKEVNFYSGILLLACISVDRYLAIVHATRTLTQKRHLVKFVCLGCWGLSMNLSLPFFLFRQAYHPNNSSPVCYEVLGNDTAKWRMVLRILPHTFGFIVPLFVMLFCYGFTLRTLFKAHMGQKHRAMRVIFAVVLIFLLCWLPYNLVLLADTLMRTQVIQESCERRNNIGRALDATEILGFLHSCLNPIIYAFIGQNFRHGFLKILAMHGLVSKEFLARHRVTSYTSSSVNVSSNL
# T11 sequence (P42680 whole entry): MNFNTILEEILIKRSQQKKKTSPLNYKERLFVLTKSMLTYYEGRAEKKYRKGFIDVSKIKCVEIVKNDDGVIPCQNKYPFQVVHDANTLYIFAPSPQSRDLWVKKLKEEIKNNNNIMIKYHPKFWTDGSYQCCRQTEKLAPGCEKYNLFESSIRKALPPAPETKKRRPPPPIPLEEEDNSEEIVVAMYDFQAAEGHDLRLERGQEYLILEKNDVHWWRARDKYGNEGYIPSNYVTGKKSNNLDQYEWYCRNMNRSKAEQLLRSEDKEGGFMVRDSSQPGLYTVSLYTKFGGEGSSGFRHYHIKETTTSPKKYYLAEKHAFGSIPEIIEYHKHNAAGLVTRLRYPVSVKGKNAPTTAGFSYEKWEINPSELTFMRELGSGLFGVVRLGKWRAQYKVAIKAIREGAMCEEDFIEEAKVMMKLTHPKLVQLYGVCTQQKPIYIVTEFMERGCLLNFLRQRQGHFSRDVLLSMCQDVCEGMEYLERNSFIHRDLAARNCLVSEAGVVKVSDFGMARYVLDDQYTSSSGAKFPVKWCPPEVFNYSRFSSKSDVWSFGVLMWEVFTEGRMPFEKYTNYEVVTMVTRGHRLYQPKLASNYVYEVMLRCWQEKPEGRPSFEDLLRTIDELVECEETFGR
# T6 sequence (Q9HBH9 whole entry): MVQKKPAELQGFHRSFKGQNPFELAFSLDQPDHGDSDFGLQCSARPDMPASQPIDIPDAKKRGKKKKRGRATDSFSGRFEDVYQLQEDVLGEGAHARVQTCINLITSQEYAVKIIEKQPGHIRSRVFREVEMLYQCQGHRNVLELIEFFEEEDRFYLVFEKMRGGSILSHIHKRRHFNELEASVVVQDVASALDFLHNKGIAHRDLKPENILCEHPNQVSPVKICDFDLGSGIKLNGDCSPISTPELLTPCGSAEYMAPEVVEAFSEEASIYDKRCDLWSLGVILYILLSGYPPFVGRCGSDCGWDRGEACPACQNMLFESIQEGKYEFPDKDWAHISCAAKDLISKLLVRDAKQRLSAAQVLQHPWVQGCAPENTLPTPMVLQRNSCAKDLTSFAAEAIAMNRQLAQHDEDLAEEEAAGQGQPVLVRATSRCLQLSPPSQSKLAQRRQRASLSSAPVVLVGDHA
# T1 sequence (P00533 with tags, fused parts or gaps DEL747-749/A750P): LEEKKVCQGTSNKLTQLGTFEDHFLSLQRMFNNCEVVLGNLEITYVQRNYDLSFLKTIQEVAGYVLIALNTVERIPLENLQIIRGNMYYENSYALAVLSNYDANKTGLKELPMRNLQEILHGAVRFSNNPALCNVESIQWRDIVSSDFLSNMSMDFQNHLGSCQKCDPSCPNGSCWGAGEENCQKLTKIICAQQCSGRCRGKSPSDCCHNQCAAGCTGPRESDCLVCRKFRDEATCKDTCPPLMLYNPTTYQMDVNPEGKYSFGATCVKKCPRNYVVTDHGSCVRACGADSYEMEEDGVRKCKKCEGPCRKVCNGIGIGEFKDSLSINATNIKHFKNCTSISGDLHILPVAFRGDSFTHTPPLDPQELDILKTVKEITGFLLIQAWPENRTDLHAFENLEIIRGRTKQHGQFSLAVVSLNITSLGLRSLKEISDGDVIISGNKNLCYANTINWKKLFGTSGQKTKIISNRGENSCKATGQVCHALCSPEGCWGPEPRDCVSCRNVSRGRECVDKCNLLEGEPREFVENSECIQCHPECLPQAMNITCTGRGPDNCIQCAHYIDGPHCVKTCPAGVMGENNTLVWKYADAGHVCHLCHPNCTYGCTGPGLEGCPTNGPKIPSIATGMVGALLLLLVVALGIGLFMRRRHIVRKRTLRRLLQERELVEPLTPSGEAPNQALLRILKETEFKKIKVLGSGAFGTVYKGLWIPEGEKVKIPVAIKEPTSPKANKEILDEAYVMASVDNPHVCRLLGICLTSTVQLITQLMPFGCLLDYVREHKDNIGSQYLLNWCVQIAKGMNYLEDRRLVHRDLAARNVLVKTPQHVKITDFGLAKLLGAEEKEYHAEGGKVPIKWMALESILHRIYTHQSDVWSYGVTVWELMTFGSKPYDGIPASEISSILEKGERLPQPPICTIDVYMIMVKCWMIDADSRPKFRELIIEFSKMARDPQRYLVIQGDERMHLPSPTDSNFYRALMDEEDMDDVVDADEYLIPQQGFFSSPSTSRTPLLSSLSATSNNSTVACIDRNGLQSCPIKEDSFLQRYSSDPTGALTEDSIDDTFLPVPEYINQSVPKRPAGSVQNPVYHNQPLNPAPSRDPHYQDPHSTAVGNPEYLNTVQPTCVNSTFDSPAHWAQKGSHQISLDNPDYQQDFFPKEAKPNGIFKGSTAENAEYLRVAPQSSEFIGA
# Sequence of CLK3 (P49761 whole entry): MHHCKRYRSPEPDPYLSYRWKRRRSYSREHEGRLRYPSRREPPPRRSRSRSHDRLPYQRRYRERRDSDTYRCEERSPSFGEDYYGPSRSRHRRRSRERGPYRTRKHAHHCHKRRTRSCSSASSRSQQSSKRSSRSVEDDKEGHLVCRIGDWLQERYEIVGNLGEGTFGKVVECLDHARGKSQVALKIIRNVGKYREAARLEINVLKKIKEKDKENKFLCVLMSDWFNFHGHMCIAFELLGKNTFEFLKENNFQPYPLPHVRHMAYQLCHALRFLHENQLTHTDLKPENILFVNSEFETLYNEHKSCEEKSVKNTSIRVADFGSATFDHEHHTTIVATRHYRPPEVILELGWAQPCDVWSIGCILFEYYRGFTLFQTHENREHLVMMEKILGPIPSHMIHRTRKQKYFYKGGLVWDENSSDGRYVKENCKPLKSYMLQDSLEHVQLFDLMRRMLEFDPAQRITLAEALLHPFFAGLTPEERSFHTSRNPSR
smiles,measurement,setting,value
"CCc1ccc2c(c1)C1(NN=C(c3cccc4ccccc34)S1)C(=O)N2 (stereo not shown) [OGM1, 5-ethyl-5′-naphthalen-1-ylspiro[1H-indole-3,2′-3H-1,3,4-thiadiazole]-2-one]",remaining binding at 10 µM,[1],91%
same,remaining binding at 10 µM,CLK3,100%
same,Antagonism,Y2; 10 uM,−0.6
same,Agonism,Y2; 12.5 uM,2.5
same,remaining binding at 10 µM,LCK,100%
same,Antagonism,PAC1; 10 uM,5.8
same,Agonism,PAC1; 12.5 uM,0.9
same,Antagonism,CXCR1; 10 uM,6.5
same,Agonism,CXCR1; 12.5 uM,−0.7
same,remaining binding at 10 µM,MKNK2,91%
same,Antagonism,ADRA1B; 10 uM,1
same,Agonism,ADRA1B; 12.5 uM,0.1
same,remaining binding at 10 µM,NEK4,100%
same,remaining binding at 10 µM,FES,100%
same,Antagonism,BB2; 10 uM,0
same,Agonism,BB2; 12.5 uM,−0.2
same,remaining binding at 10 µM,TEC,93%
same,remaining binding at 10 µM,MEK3,100%
same,remaining binding at 10 µM,NEK11,88%
same,remaining binding at 10 µM,PRKCQ,99%
same,remaining binding at 10 µM,[2],83%
same,remaining binding at 10 µM,PLK4,71%
same,remaining binding at 10 µM,CSNK1G3,100%
same,remaining binding at 10 µM,[3],100%
same,remaining binding at 10 µM,KIT,79%
same,remaining binding at 10 µM,CAMKK2,89%
CCc1ccc2c(c1)C1(NN=C(c3ccccc3)S1)C(=O)N2 (stereo not shown) [OGM2],calcium response to extracellular acidification,GPR68,inhibited
same,Class,Hep G2,Sensitive (Sensitive (LC50=2 to 10 μM))
same,% Survival 2 μM OGM,Hep G2; 72 hours,66.8%
same,% Survival 10 μM OGM,Hep G2; 72 hours,45.7%
same,CC50,"Hep G2; Homo sapiens, HepG2, 72 hours, read-out: LC50 (the source's name)",2 to 10 µM
